Experimental data from the supplement of paper PMC10307832.

How the values were obtained:
Test in all cases: relative viability (nuclei count vs DMSO), 5 days (fraction); higher = more cells survive
[1] = compound: CC1=CC(=CC=C1)NC2=NC(=CS2)C3=CC=NC=C3 + NC(=O)Nc1cc(-c2cccc(F)c2)sc1C(=O)N[C@H]1CCCNC1 [AZD7762] (partner 0.2 µM)
Method in brief: (§1)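 Values are medians from duplicate plates. Each reflects relative viability, defined as the nuclei count of treated wells over that of vehicle wells. Lung cancer cell lines in 1536-well plates were pin-tool dosed one day after seeding with one drug alone or with a fixed anchor-drug dose plus five library-drug doses (not always all listed) in √10 steps, then fixed, stained and imaged at 4× after 5 days.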

[2] = compound: CC1=CC(=CC=C1)NC2=NC(=CS2)C3=CC=NC=C3 + CCNC(=O)c1noc(-c2cc(C(C)C)c(O)cc2O)c1-c1ccc(CN2CCOCC2)cc1 [Luminespib] (partner 0.01 µM)
Method in brief: as §1

[3] = compound: Cc1ccc(NC(=O)c2ccc(CN3CCN(C)CC3)cc2)cc1Nc1nc(-c2cccnc2)cs1 [Masitinib] + CC(=O)c1c(C)c2cnc(Nc3ccc(N4CCNCC4)cn3)nc2n(C2CCCC2)c1=O [Palbociclib] (partner 0.5 µM)
Method in brief: as §1

[4] = compound: CC1=CC(=CC=C1)NC2=NC(=CS2)C3=CC=NC=C3 + CC(=O)c1c(C)c2cnc(Nc3ccc(N4CCNCC4)cn3)nc2n(C2CCCC2)c1=O [Palbociclib] (partner 0.5 µM)
Method in brief: as §1

| Cell Line | relative viability ([1]; first compound 0.08 µM) | relative viability ([1]; first compound 0.8 µM) | relative viability ([1]; first compound 2.53 µM) | relative viability ([1]; first compound 8 µM) | relative viability ([2]; first compound 0.08 µM) | relative viability ([2]; first compound 0.253 µM) | relative viability ([2]; first compound 0.8 µM) | relative viability ([2]; first compound 2.53 µM) | relative viability ([2]; first compound 8 µM) | relative viability ([3]; first compound 0.01 µM) | relative viability ([3]; first compound 0.03162 µM) | relative viability ([3]; first compound 0.1 µM) | relative viability ([3]; first compound 0.3162 µM) | relative viability ([3]; first compound 1 µM) | relative viability ([4]; first compound 0.08 µM) | relative viability ([4]; first compound 0.8 µM) | relative viability ([4]; first compound 2.53 µM) | relative viability ([4]; first compound 8 µM) | relative viability ([1]; first compound 0.253 µM) | relative viability ([4]; first compound 0.253 µM) |
| --- | --- | --- | --- | --- | --- | --- | --- | --- | --- | --- | --- | --- | --- | --- | --- | --- | --- | --- | --- | --- |
| PC-3 [JPC-3] | 0.711 | 1.11 | 0.712 | 0.663 | 0.715 | 0.723 | 0.532 | 0.633 | 0.629 | 0.438 | 0.498 | 0.553 | 0.526 | 0.466 | 0.542 | 0.503 | 0.477 | 0.481 | – | – |
| NCI-H1666 | 0.766 | 0.607 | 0.548 | 0.68 | 0.976 | 0.958 | 0.773 | 0.81 | 0.679 | 0.665 | 0.63 | 0.696 | 0.628 | 0.617 | 0.664 | 0.546 | 0.584 | 0.617 | 0.715 | 0.631 |
| HARA | 0.306 | 0.317 | 0.356 | 0.273 | 0.494 | 0.872 | 0.496 | 0.684 | 0.359 | 0.271 | – | 0.244 | 0.254 | 0.254 | 0.238 | 0.196 | 0.222 | 0.324 | 0.466 | 0.237 |
| NCI-H1651 | 0.5 | 0.416 | 0.426 | 0.366 | 1.16 | 0.893 | 0.875 | 0.706 | 0.74 | 0.388 | 0.505 | 0.419 | 0.535 | 0.523 | 0.492 | 0.507 | 0.523 | 0.543 | 0.473 | 0.486 |
| NCI-H1395 | 0.401 | 0.393 | 0.352 | 0.336 | 0.597 | 0.72 | 0.688 | 0.643 | 0.524 | 0.593 | 0.653 | 0.643 | 0.562 | 0.595 | 0.577 | 0.546 | 0.556 | 0.606 | – | – |
| LU99A | 0.36 | 0.361 | 0.374 | 0.442 | 0.256 | 0.213 | 0.242 | 0.302 | 0.254 | 0.431 | 0.417 | 0.419 | 0.428 | 0.418 | 0.387 | 0.42 | 0.39 | 0.468 | 0.326 | 0.384 |
| LXF-289 | 1.04 | 1.04 | 1.2 | 0.964 | 0.655 | 0.649 | 0.573 | 0.646 | 0.69 | 0.553 | 0.6 | 0.655 | 0.627 | 0.595 | 0.57 | 0.57 | 0.645 | 0.553 | 1.12 | 0.642 |
| NCI-H1437 | 1.07 | 1.1 | 1.12 | 1.11 | 1.18 | 1.17 | 1.1 | 1.13 | 0.98 | 0.25 | 0.32 | 0.248 | 0.302 | 0.305 | 0.316 | 0.301 | 0.23 | 0.289 | 1.11 | 0.331 |
